The results in this text go back to US9200171B2, “AZO compound and ink containing the compound” (MITSUBISHI CHEMICAL CORPORATION, priority 2011, dated 2015).

≈ marks a conversion by molar mass, not a printed value.

For orientation: solubility means the concentration that dissolves in the medium under given conditions. As a reminder, the Solubility is the concentration that dissolves in the medium under given conditions. The low end stands for a poorly soluble substance, the high end for a readily soluble substance.

Series [1] in a line: Absorption-maximum wavelength λmax, molar extinction coefficient ε and solution colour in each solvent. The series is classed as physicochemical. To be noted: for ε: at absorption-maximum wavelength. How it is done: Each of the compounds 1 to 15 and the comparative example compounds 1 and 2 (1 mg each) was dissolved in each solvent (100 ml) and measurement of absorption spectra was performed on Hitachi spectrophotometer U-4100 using a quartz cell having an optical path length for measurement of 10 mm. From the resulting spectra, absorption-maximum wavelength λmax (nm) and molar extinction coefficient ε ([…]) were determined.

Series [2] is described as follows: Solubility C (saturated concentration at 5° C.) of compound in low-polarity solvent and product εC. The series is classed as physicochemical. To be noted: for ε · C: C at 5° C.; for solubility at 24 h: organic solvent or mixture, thermodynamic from solid; for solubility at 24 h / Solubility: at 5° C. How it is done: The solubility C of each compound in each solvent was measured as follows.
Each compound was added to each solvent until a dissolution residue came to remain, and the mixture was subjected to an ultrasonic treatment for 30 minutes at 30° C. After the mixture was allowed to stand at 5° C. for 24 hours, centrifugal filtration was performed through a filter of 0.1 μm using a microcentrifuge (centrifugal force 5200×g). The resulting saturated solution was diluted to an appropriate concentration, and measurement of absorption spectra was performed on Hitachi spectrophotometer U-4100 using a quartz cell having an optical path length for measurement of 10 mm. The concentration of each compound was determined from a relationship between the absorbance at the absorption-maximum wavelength λmax (nm) and the molar extinction coefficient ε (L·mol^−1·cm^−1) previously measured, and the solubility C (mol·L^−1) was calculated. Moreover, the value of the product of the molar extinction coefficient ε (L·mol^−1·cm^−1) and the solubility C (mol·L^−1), εC, was determined.
Sudan Black B (manufactured by Tokyo Chemical Industry Co., Ltd.) that is a commercially available oil-soluble black dye was added to n-decane (relative permittivity 2.0, solubility in water 1 mg/L or less) until a dissolution residue came to remain, and the mixture was subjected to an ultrasonic treatment for 30 minutes at 30° C. After the mixture was allowed to stand at 5° C. for 24 hours, centrifugal filtration was performed through a filter of 0.1 μm using a microcentrifuge (centrifugal force 5200×g). The resulting saturated n-decane solution was diluted to an appropriate concentration.

For the compound `CCCCC(CC)CNc1ccc(NCC(CC)CCCC)c2c1C(=O)c1ccccc1C2=O` (stereo not drawn) [Comparative example compound 1, reference compound], the figures for the Absorption-maximum wavelength in series [1] (Isopar M), in series [1] (n-decane) and in series [1] (tetradecane) were 651 nm, 652 nm and 651 nm, respectively. The Color tone entry in series [1] (Isopar M solution), in series [1] (n-decane solution) and in series [1] (tetradecane solution) was “blue” in each case. In addition, the ε in series [1] (Isopar M), in series [1] (n-decane) and in series [1] (tetradecane) was 17000 L/mol/cm throughout. Also, the entries for the “ε · C” value in series [2] (Isopar M), in series [2] (n-decane) and in series [2] (tetradecane) were 1200 cm⁻¹, 460 cm⁻¹ and 1600 cm⁻¹, respectively. Besides, the results for the solubility at 24 h in series [2] (in Isopar M), in series [2] (in n-decane) and in series [2] (in tetradecane) were 71 mM (≈ 32.9 mg/mL), 27 mM (≈ 12.5 mg/mL) and 94 mM (≈ 43.5 mg/mL), respectively.
In the case of `C=CCn1c(N=Nc2ccc(N(CCC)CCC)cc2NC(C)=O)nc(C#N)c1C#N` [Comparative example compound 2, reference compound], the Absorption-maximum wavelength was determined as 514 nm in series [1] (Isopar M), 512 nm in series [1] (n-decane) and 514 nm in series [1] (tetradecane). The Color tone result in series [1] (Isopar M solution), in series [1] (n-decane solution) and in series [1] (tetradecane solution) was “red” throughout. In addition, the ε in series [1] (Isopar M) was 39000 L/mol/cm; in series [1] (n-decane) it was 34000 L/mol/cm; in series [1] (tetradecane), 39000 L/mol/cm. Besides, the “ε · C” value in series [2] (Isopar M), in series [2] (n-decane) and in series [2] (tetradecane) was ≤ 10 or cm^−1 in each case. In addition, the solubility at 24 h in series [2] (in Isopar M), in series [2] (in n-decane) and in series [2] (in tetradecane) was no more than 0.01 mM in each case.
In series [1] (n-decane), `CCCCc1ccc(N=Nc2cc(C#N)c(/N=N/c3ccc(N(CC(CC)CCCC)CC(CC)CCCC)cc3NC(C)=O)s2)cc1` (stereo not drawn) [Compound 1] showed an Absorption-maximum wavelength of 619 nm and a ε of 76000 L/mol/cm. Further, in series [1] (n-decane solution), the Color tone entry is “blue”. Also, the “ε · C” value in series [2] (n-decane) is 1800 cm⁻¹. In addition, in series [2] (in n-decane), the solubility at 24 h was found to be 24 mM (≈ 16.1 mg/mL).
`CCCCC(CC)CN(CC(CC)CCCC)c1ccc(N=Nc2sc(N=Nc3ccc(C(=O)OCC(C)C)cc3)cc2C#N)c(CC)c1` (stereo not drawn) [Compound 2]: the Absorption-maximum wavelength in series [1] (n-decane) worked out at 635 nm; in series [1] (tetradecane), 637 nm. Besides, the Color tone entry in series [1] (n-decane solution) and in series [1] (tetradecane solution) was “blue” throughout. Moreover, the ε was 57000 L/mol/cm in series [1] (n-decane) and 54000 L/mol/cm in series [1] (tetradecane). The Solubility in series [2] (in n-decane) and in series [2] (in tetradecane) was 27 mM (≈ 18.5 mg/mL) throughout. The “ε · C” value in series [2] (n-decane) and in series [2] (tetradecane) was 1500 cm⁻¹ in each case.
